From patent publication US4634706A, “Griseolic acid derivatives, and their use as enzyme inhibitors” (Sankyo Company Limited, priority 1983, dated 1987) come the findings set out here.

Experiment [1] addresses cAMP PDE. Nature of the experiment: Phosphodiesterase (PDE) inhibitory activity, cAMP substrate. It is filed as biochemical, rat. The settings on record: 0.14 μM 14C-labeled cAMP, pH 8.0, 30° C., 20 minutes, crude enzyme from rat brains; read-out: I50 cAMP PDE. The method, then: (§1) The test was carried out following essentially the method of A. L. Pichard and Y. U. Chung [Journal of Biological Chemistry, 251, 5726-5737 (1976)]. A crude enzymatic solution derived from rat brains was used as the source of cAMP PDE.
(§2) ^14 C-labeled cAMP was used as the substrate. It was employed in a 0.2M Tris-hydrochloric acid buffer solution (pH 8.0) in an amount sufficient to provide a final concentration of 0.14 μM. "Tris" is tris(hydroxymethyl)aminomethane. The substrate solution was mixed with an appropriate amount of the compound under test dissolved in 2-5 μl of dimethyl sulfoxide and with 20 μl of a snake venom solution and 40 μl of the crude enzyme solution. Sufficient Tris-hydrochloric acid buffer was added to make a total volume of 100 μl. The mixture was allowed to react at 30° C. for 20 minutes. At the end of this time, the reaction mixture was treated with an Amberlite (trade mark) IRP-58 resin and the level of residual adenosine radioactivity in the product was determined.

Experiment [2] has as its target cGMP PDE. The experiment in a line: Phosphodiesterase (PDE) inhibitory activity, cGMP substrate. Type of experiment: biochemical. The settings on record: cGMP as substrate, crude enzyme from rat brains; read-out: I50 cGMP PDE. The protocol:
as §1, §2
The experiment was repeated, except that cyclic guanosine monophosphate (cGMP) was employed as the substrate instead of cAMP. The I50 value against cGMP PDE was also calculated.

For the compound `O=C(O)C(O)C1(C(=O)O)C=C2OC(n3c(Br)nc4c(=O)[nH]cnc43)C(O)C2O1` (stereo not drawn) [Compound No. 197, 8-bromo-6-desamino-6-hydroxygriseolic acid], the IC50 came out at 25 µM in experiment [1] and 13.1 µM in experiment [2].
As to `Nc1ncnc2c1ncn2C1OC2=CC(C(=O)O)([C@H](N)C(=O)O)OC2[C@H]1O` (stereo partly drawn) [Compound No. 135, 7'(S)-amino-7'-deoxygriseolic acid], the IC50 in experiment [1] was 2 µM; in experiment [2], 4.2 µM.
Taken in the same sequence, the figures for `CNc1ncnc2c1ncn2C1OC2=CC(C(=O)O)([C@@H](O)C(=O)O)OC2[C@H]1O` (stereo partly drawn) [Compound No. 58, N^6 -methylgriseolic acid] were 2 µM and 14 µM.
On the same counts, the results for `Nc1ncnc2c1ncn2C1OC2=CC(C(=O)O)([C@@H](O)C(=O)O)OC2[C@@H]1Br` (stereo partly drawn) [Compound No. 143, 2'(S)-bromo-2'-deoxygriseolic acid] are 0.09 µM and 4.1 µM.
Taken in the same sequence, the figures for `O=C(O)[C@H](O)C1(C(=O)O)C=C2OC(n3cnc4cncnc43)[C@H](O)C2O1` (stereo partly drawn) [Compound No. 53, 6-desamino-6-hydrogriseolic acid] were 14 µM and 1.2 µM.
Take `O=C(O)[C@H](O)C1(C(=O)O)C=C2OC(n3cnc4c(NCc5ccccc5)ncnc43)[C@H](O)C2O1` (stereo partly drawn) [Compound No. 63, N^6 -benzylgriseolic acid]: the results for the IC50 in experiment [1] and in experiment [2] were 7.4 µM and 9.7 µM, respectively.
On the same counts, the results for `[N-]=[N+]=N[C@H](C(=O)O)C1(C(=O)O)C=C2OC(n3cnc4c(N)ncnc43)[C@H](O)C2O1` (stereo partly drawn) [Compound No. 81, 7'-azido-7'-deoxygriseolic acid] are 4.4 µM and 13 µM.
On the same counts, the results for `Nc1ncnc2c1nc(Br)n2C1OC23OC(C(=O)O)C(C(=O)O)(OC2[C@H]1O)C3Br` (stereo partly drawn) [Compound No. 187, 4',7'-anhydro-5',α,8-dibromo-4'α-hydroxygriseolic acid] are 35 µM and 32 µM.
Taken in the same sequence, the figures for `CC(=O)O[C@@H](C(=O)O)C1(C(=O)O)C=C2OC(n3cnc4c(=N)n(Cc5ccccc5)cnc43)[C@H](O)C2O1` (stereo partly drawn) [Compound No. 46, O^7' -acetyl-N^1 -benzylgriseolic acid] were 1.8 µM and 0.9 µM.
In the case of `Nc1ncnc2c1ncn2C1OC2=CC(C(=O)O)([C@@H](O)C(=O)O)OC2[C@H]1OC(=O)c1ccccc1` (stereo partly drawn) [Compound No. 36, O^2' -benzoylgriseolic acid], the IC50 in experiment [1] was 6.8 µM; in experiment [2], 48 µM.
On to `Nc1ncnc2c1ncn2C1OC2=CC(C(=O)O)([C@H](O)C(=O)O)OC2[C@H]1O` (stereo partly drawn) [Compound No. 140, 7'-deoxy-7'(S)-hydroxygriseolic acid], for which the IC50 in experiment [1] turned out to be 0.76 µM; in experiment [2], 2.8 µM.
`Nc1ncnc2c1ncn2C1OC2=CC(C(=O)O)([C@@H](O)C(=O)O)OC2[C@@H]1I` (stereo partly drawn) [Compound No. 249, 2'-deoxy-2'(S)-iodogriseolic acid]: the IC50 in experiment [1] was 0.44 µM; in experiment [2], 2.8 µM.
On the same counts, the results for `Nc1ncnc2c1ncn2C1CC2OC(C(=O)O)([C@@H](O)C(=O)O)C=C2O1` (stereo partly drawn) [Compound No. 144, 2'-deoxygriseolic acid] are 0.19 µM and 1.1 µM.
Taken in the same sequence, the figures for `Nc1ncnc2c1ncn2C1OC2=CC(C(=O)O)([C@H](Br)C(=O)O)OC2[C@H]1O` (stereo partly drawn) [Compound No. 137, 7'(S)-bromo-7'-deoxygriseolic acid] were 3.4 µM and 19 µM.
Taken in the same sequence, the figures for `Nc1ncnc2c1ncn2C1OC2=CC(C(=O)O)([C@@H](OC(=O)c3ccccc3)C(=O)O)OC2[C@H]1OC(=O)c1ccccc1` (stereo partly drawn) [Compound No. 40, O^2',O^7' -dibenzoylgriseolic acid] were 3.2 µM and 90 µM.
As for `Nc1ncnc2c1ncn2C1OC2=CC(C(=O)O)([C@@H](O)C(=O)O)OC2[C@@H]1N` (stereo partly drawn) [Compound No. 248, 2'(S)-amino-2'-deoxygriseolic acid], the values for the IC50 in experiment [1] and in experiment [2] were 3.2 µM and 12.7 µM, respectively.
With `Nc1ncnc2c1ncn2C1OC2=CC(C(=O)O)([C@@H](OC(=O)c3ccccc3)C(=O)O)OC2[C@H]1O` (stereo partly drawn) [Compound No. 37, O^7' -benzoylgriseolic acid], the IC50 in experiment [1] stood at 0.31 µM; in experiment [2], 2.9 µM.
With `Cn1c(=O)c2[nH]cnc2n(C)c1=O` [theophylline, reference compound], the IC50 in experiment [1] worked out at 360 µM; in experiment [2] it was 196 µM.
Taken in the same sequence, the figures for `Nc1ncnc2c1ncn2C1OC2=CC(C(=O)O)([C@@H](O)C(=O)O)OC2[C@@H]1Cl` (stereo partly drawn) [Compound No. 142, 2'(S)-chloro-2'-deoxygriseolic acid] were 0.15 µM and 2.5 µM.
With `NNc1ncnc2c1ncn2C1OC2=CC(C(=O)O)([C@@H](O)C(=O)O)OC2[C@H]1O` (stereo partly drawn) [Compound No. 60, 6-desamino-6-hydrazinogriseolic acid], the figures for the IC50 in experiment [1] and in experiment [2] were 5.4 µM and 4.8 µM, respectively.
On the same counts, the results for `COc1ncnc2c1ncn2C1OC2=CC(C(=O)O)([C@@H](O)C(=O)O)OC2[C@H]1O` (stereo partly drawn) [Compound No. 124, 6-desamino-6-methoxygriseolic acid] are 10 µM and 4.9 µM.
Taken in the same sequence, the figures for `CC(=O)O[C@@H]1C2OC(C(=O)O)([C@@H](OC(C)=O)C(=O)O)C=C2OC1n1cnc2c(N)ncnc21` (stereo partly drawn) [Compound No. 41, O^2',O^7' -diacetylgriseolic acid] were 9.3 µM and 243 µM.
Consider `N=c1c2ncn(C3OC4=CC(C(=O)O)([C@@H](O)C(=O)O)OC4[C@H]3O)c2ncn1Cc1ccccc1` (stereo partly drawn) [Compound No. 45, N^1 -benzylgriseolic acid], for which the IC50 in experiment [1] amounted to 0.6 µM; in experiment [2], 1.2 µM.
On to `Nc1ncnc2c1nc(Br)n2C1OC2=CC(C(=O)O)([C@@H](O)C(=O)O)OC2[C@H]1O` (stereo partly drawn) [Compound No. 196, 8-bromogriseolic acid], for which the IC50 in experiment [1] was determined as 2.5 µM; in experiment [2] it was 1.7 µM.
On the same counts, the results for `[N-]=[N+]=N[C@H]1C2OC(C(=O)O)([C@@H](O)C(=O)O)C=C2OC1n1cnc2c(N)ncnc21` (stereo partly drawn) [Compound No. 247, 2'(S)-azido-2'-deoxygriseolic acid] are 0.45 µM and 6.4 µM.
Taken in the same sequence, the figures for `COc1nc2c(N)ncnc2n1C1OC2=CC(C(=O)O)([C@@H](O)C(=O)O)OC2[C@H]1O` (stereo partly drawn) [Compound No. 195, 8-methoxygriseolic acid] were 3.9 µM and 3.2 µM.
Taken in the same sequence, the figures for `Nc1ncnc2c1nc(S)n2C1OC2=CC(C(=O)O)([C@@H](O)C(=O)O)OC2[C@H]1O` (stereo partly drawn) [Compound No. 192, 8-mercaptogriseolic acid] were 30.4 µM and 49.8 µM.
Turning to `CN(C)c1ncnc2c1ncn2C1OC2=CC(C(=O)O)([C@@H](O)C(=O)O)OC2[C@H]1O` (stereo partly drawn) [Compound No. 59, N^6 -dimethylgriseolic acid], the IC50 was 31 µM in experiment [1] and 39 µM in experiment [2].
`O=C(Nc1ncnc2c1ncn2C1OC2=CC(C(=O)O)([C@@H](OC(=O)c3ccccc3)C(=O)O)OC2[C@H]1O)c1ccccc1` (stereo partly drawn) [Compound No. 39, N^6,O^7' -dibenzoylgriseolic acid]: the IC50 in experiment [1] is 33 µM; in experiment [2] it was 111 µM.
Regarding `O=C(O)C(O)C1(C(=O)O)C=C2OC(n3cnc4c(=O)[nH]cnc43)C(O)C2O1` (stereo not drawn) [Compound No. 51, 6-desamino-6-hydroxygriseolic acid], the results for the IC50 in experiment [1] and in experiment [2] were 0.32 µM and 0.13 µM, respectively.
